From ChEMBL document CHEMBL2434845, “Design, synthesis and efficacy of novel G protein-coupled receptor kinase 2 inhibitors” (Eur J Med Chem, 2013) come the findings set out here.

The structures appear in SMILES notation. Calls of active or inactive are those of the source. No cut-off for these calls is given here. Peptide text beside a SMILES is read from it.

Series [1] deals with G protein-coupled receptor kinase 5 (Homo sapiens) (UniProt P34947). Put plainly: Inhibition of GRK-5 (unknown origin)-mediated phosphorylation of rhodopsin in bovine-rod outer segment membranes incubated under white light condition for 15 mins measured after 30 mins by autoradiography in presence of [gamma32P]-ATP. It counts as cell membranes. Set-up: concentration or dose not given beside the values.

For series [2], the target named is T1, Beta-adrenergic receptor kinase 1 (Homo sapiens) (UniProt P25098).
T1 sequence (whole entry): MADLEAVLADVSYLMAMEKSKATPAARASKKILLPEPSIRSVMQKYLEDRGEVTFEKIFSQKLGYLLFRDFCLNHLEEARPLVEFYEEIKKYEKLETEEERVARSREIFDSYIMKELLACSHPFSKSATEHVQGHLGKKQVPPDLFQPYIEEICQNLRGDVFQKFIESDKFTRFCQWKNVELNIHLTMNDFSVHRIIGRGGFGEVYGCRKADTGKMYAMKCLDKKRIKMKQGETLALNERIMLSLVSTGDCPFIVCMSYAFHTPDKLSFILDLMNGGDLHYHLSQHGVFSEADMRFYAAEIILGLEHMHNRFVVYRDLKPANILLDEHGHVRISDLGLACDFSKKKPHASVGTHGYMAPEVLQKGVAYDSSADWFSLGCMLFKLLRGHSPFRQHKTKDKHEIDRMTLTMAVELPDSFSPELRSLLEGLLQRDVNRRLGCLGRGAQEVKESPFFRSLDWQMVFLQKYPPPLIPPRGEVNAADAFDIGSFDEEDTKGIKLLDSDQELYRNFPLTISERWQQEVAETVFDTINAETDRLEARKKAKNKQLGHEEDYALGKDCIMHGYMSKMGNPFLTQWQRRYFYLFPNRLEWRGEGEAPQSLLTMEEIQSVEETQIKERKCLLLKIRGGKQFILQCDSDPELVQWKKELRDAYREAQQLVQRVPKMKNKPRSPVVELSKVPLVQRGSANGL
Put plainly: Inhibition of GRK-2 (unknown origin)-mediated phosphorylation of rhodopsin in bovine-rod outer segment membranes at 1 uM incubated under white light condition for 15 mins measured after 30 mins by autoradiography in presence of [gamma32P]-ATP. It counts as cell membranes.

Series [3] concerns the target T2, Beta-adrenergic receptor kinase 1 (Homo sapiens, UniProt P25098).
T2 sequence (P25098 whole entry): T1 sequence (whole entry)
Kind of series: (§1) Inhibition of GRK-2 (unknown origin)-mediated phosphorylation of rhodopsin in bovine-rod outer segment membranes incubated under white light condition for 15 mins measured after 30 mins by autoradiography in presence of [gamma32P]-ATP. Format: cell membranes.

In series [4] the test system is HEK293. Put plainly: Cellular uptake in HEK293 cells overexpressing human beta2 adrenergic receptor at 1 to 10 uM after 1 hr by fluorescence assay. Format: ADME, cell-based. Conditions: hek293, 1 h.
Series [5] relates to HEK293. Kind of series: Cellular uptake in HEK293 cells overexpressing human beta2 adrenergic receptor at 1 uM after 1 hr by confocal microscopic analysis. Format: ADME, cell-based. Conditions: hek293, 1 h.
The target in series [6] is T1, Beta-adrenergic receptor kinase 1 (Homo sapiens). Put plainly: Inhibition of GRK2 in HEK293 cells overexpressing human beta2 adrenergic receptor assessed as effect on cAMP production at 1 uM after 1 hr by enzyme immunoassay. It counts as cell-based. In general terms: Changes in cAMP serve as a functional read-out for many G protein-coupled receptors.
Series [7] has the same target. The series is described as §1. It counts as cell membranes.
Series [8] has the same target. Put plainly: Inhibition of GRK2 in HEK293 cells overexpressing human beta2 adrenergic receptor assessed as increase in beta2 adrenergic receptor density at 1 uM after 1 hr by gamma counting analysis in presence of [125I]cyanopindolol. Format: cell-based.
Series [9] has the same target. Kind of series: Inhibition of GRK2 in HEK293 cells overexpressing human beta2 adrenergic receptor assessed as effect on isoproterenol-induced cAMP production at 1 uM preincubated for 1 hr prior to isoproterenol-stimulation measured after 15 mins by enzyme immunoassay. It counts as cell-based.

Sequence of G protein-coupled receptor kinase 5 (Homo sapiens) (P34947 whole entry, looked up): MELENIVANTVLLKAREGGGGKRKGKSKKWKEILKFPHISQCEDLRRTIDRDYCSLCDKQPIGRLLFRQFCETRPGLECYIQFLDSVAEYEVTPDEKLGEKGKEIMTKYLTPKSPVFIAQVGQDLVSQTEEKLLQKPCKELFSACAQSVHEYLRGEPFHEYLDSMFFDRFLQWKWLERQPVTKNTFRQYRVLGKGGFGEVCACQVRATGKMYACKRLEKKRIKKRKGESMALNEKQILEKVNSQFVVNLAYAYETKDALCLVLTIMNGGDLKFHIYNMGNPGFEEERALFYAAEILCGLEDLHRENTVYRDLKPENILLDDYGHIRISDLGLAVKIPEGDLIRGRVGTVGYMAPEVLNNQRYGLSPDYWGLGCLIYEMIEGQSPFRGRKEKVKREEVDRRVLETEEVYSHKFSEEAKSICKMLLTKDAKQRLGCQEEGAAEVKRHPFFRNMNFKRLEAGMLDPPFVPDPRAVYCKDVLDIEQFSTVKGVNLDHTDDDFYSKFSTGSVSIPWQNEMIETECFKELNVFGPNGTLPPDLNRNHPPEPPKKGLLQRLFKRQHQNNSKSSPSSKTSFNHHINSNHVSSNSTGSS

The inhibition is how much of the control response was suppressed. Take `CC(C)C[C@@H]1NC(=O)[C@H](CC(C)C)NC(=O)[C@H](CCCCN)NC(=O)[C@H](CC(=O)O)NC(=O)[C@H](Cc2cnc[nH]2)NC(=O)CNC(=O)[C@H](CCCNC(=N)N)NC1=O` (cyclo(DKLLRGH)): the inhibition in series [1] is less than 5%; in series [2], 47.2%.

Take `CC(C)C[C@@H]1NC(=O)[C@H](CCCCN)NC(=O)[C@H](CC(=O)O)NC(=O)[C@H](Cc2cnc[nH]2)NC(=O)[C@@H](CCCNC(=N)N)NC(=O)[C@H](CCCNC(=N)N)NC(=O)[C@H](CC(C)C)NC1=O`: the values for the inhibition in [1] and in series [2] were less than 5% and 36.3%, respectively.

As for `CC(C)C[C@@H]1NC(=O)CNC(=O)[C@H](CO)NC(=O)[C@H](Cc2cnc[nH]2)NC(=O)[C@@H](CCCNC(=N)N)NC(=O)[C@H](CCCNC(=N)N)NC(=O)[C@H](CC(C)C)NC1=O`, the inhibition in series [1] is less than 5%; in series [2] it was 47.8%.

One may read the IC50 as the point on the concentration scale where inhibition reaches its midpoint. With `CC[C@H](C)[C@H](NC(=O)[C@H](CO)NC(=O)[C@H](Cc1cnc[nH]1)NC(=O)[C@@H](CCCN=C(N)N)NC(=O)[C@H](CCCN=C(N)N)NC(=O)[C@H](CC(C)C)NC(=O)[C@H](CC(C)C)NC(=O)CN)C(=O)O`, in series [3], the IC50 came out at 340 nM. In addition, the Drug uptake entry in series [4] and in series [5] was “Active” in each case.

For the compound `CC(C)C[C@H](NC(=O)CN)C(=O)N[C@@H](CC(C)C)C(=O)N[C@@H](CCCNC(=N)N)C(=O)N[C@H](CCCNC(=N)N)C(=O)N[C@@H](Cc1cnc[nH]1)C(=O)N[C@@H](CO)C(=O)O`, the inhibition was less than 5% in series [1] and 47.6% in series [2].

As for `CC[C@H](C)[C@@H]1NC(=O)[C@H](CO)NC(=O)[C@H](Cc2cnc[nH]2)NC(=O)[C@@H](CCCNC(=N)N)NC(=O)[C@H](CCCNC(=N)N)NC(=O)[C@H](CC(C)C)NC(=O)[C@H](CC(C)C)NC(=O)CNC1=O`, the results for the inhibition in series [1] and in series [2] were less than 5% and 37.2%, respectively.

Turning to `CC[C@H](C)[C@H](NC(=O)[C@H](CO)NC(=O)[C@H](Cc1cnc[nH]1)NC(=O)[C@@H](CCCNC(=N)N)NC(=O)[C@H](CCCNC(=N)N)NC(=O)[C@H](CC(C)C)NC(=O)[C@H](CC(C)C)NC(=O)CN)C(=O)O`, the inhibition in series [1] was less than 5%; in [7], “Dose-dependent effect”; in series [2] it was 49.6%. The inhibition result in series [6], in [8] and in series [9] was “Active” each time.
